Reference: patent US8455461B2, “Compositions containing a synergic mixture of polyols and xyloglucanes as phytosanitary and bio-fertilising products” (Elicityl, priority 2007, dated 2013)

What was measured:
[1] = tested on: Cabernet-Sauvignon vine plants; experiment: Frost-resistance of young vine plants, Cabernet-Sauvignon (foliar spraying, cold stress, foliar necroses); assay type: in vivo
Description: (§1) Plants originating from different vine varieties: the Chardonnay and Cabernet-Sauvignon varieties are used. Each sample, composed of 5 to 21 plants, is treated by foliar spraying at different vegetative stages on the BBCH scale with a mixture containing the xyloglucan elicitor, heptasaccharide XFGol or heptamaloxyloglucan, in solution at variable doses combined or not combined with sorbitol; the spraying of 2.5 ml of solution per plant is carried out using a sprayer (deviation of +/−1%). After use of the elicitor, the plants were exposed to cold stress of variable intensity and duration. After exposure to the cold, the plants are placed in a climatic chamber at 20° C. with a 12-hour day/night alternation. The appearance of the leaves is observed 24 hours and 72 hours after removal from the cold. The effects of the cold are evaluated by observing the foliar necroses induced by frost and the plants are kept for several months in order to monitor their subsequent development. The results are expressed by the protection index c (%)=100−P; P, being the proportion of foliar necroses. The results are also expressed in gain: [formula]

[2] = tested on: Chardonnay vine plants; experiment: Frost-resistance of young vine plants, Chardonnay (foliar spraying, cold stress, foliar necroses); assay type: in vivo
Description: as §1

| SMILES | Gain % ([1]; Cabernet-Sauvignon second series, 500 nM elicitor, vs dry control) [%] | If % average (protection index) ([1]; Cabernet-Sauvignon second series, all physiological stages combined, 500 nM elicitor) [%] | If % average (protection index) ([2]; all physiological stages combined, 5 nM elicitor) [%] | Gain % ([2]; all physiological stages combined, 5 nM elicitor, vs dry control) [%] | effect of sorbitol on frost protection ([1]; Cabernet-Sauvignon, 0.1% sorbitol, when the elicitor itself has no effect) | effect of sorbitol on frost protection ([2]; 0.1% sorbitol, when the elicitor itself has no effect) |
| --- | --- | --- | --- | --- | --- | --- |
| CC1OC(OC2C(OC3C(OCC4OC(OC(C(O)CO)C(O)C(O)CO)C(O)C(O)C4OC4OC(COC5OCC(O)C(O)C5O)C(O)C(O)C4O)OCC(O)C3O)OC(CO)C(O)C2O)C(O)C(O)C1O (stereo not drawn) [Elicitor, heptamaloxyloglucan] | 200 | 60 | 40 | 0 |  |  |
| OC[C@@H](O)[C@@H](O)[C@H](O)[C@@H](O)CO [sorbitol] |  |  |  |  | without effect | without effect |
